Measured values: patent US6825350B2, “Sulfonamide and sulfamide substituted imidazoquinolines and methods for the treatment of periodontal disease using these and other immune response modifiers” (3M Innovative Properties Company, priority 1999, dated 2004)
Like-named read-outs stand apart in the source and are kept apart here.

How the values were obtained:
interferon (α) = experiment: Cytokine induction in human cells: interferon (α) by ELISA; format: cell-based; conditions: human PBMCs, 18 to 24 hours incubation, ELISA of culture supernatant, read-out: Lowest Effective Concentration (μM) Interferon
[1] = tested on: tumor necrosis factor (α); experiment: Cytokine induction in human cells: tumor necrosis factor (α) by ELISA; format: cell-based; conditions: human PBMCs, 18 to 24 hours incubation, ELISA of culture supernatant, read-out: Lowest Effective Concentration (μM) Tumor Necrosis Factor

Row | Compound | minimal effective concentration (interferon (α); Homo sapiens, PBMC) | minimal effective concentration ([1]; Homo sapiens, PBMC) | minimal effective concentration (interferon (α)) | minimal effective concentration [1]
1 | COCCc1nc2c(N)nc3c(c2n1CCCCNS(=O)(=O)Cc1ccccc1)CCCC3 [Example 211] | 0.0001 µM | 1 µM | – | –
2 | CCCCc1nc2c(N)nc3ccccc3c2n1CCNS(=O)(=O)c1ccc(C(C)(C)C)cc1 [Example 25] | 3.33 µM | > 30 µM | – | –
3 | CCCS(=O)(=O)NCCCCn1cnc2c(N)nc3c(c21)CCCC3 [Example 54] | 10 µM | > 30 µM | – | –
4 | CCCCc1nc2c(N)nc3ccccc3c2n1CCCCNS(=O)(=O)c1ccc(Cl)s1 [Example 101] | 0.01 µM | 10 µM | – | –
5 | COCCc1nc2c(N)nc3ccccc3c2n1CCCCNS(=O)(=O)c1ccccc1Cl [Example 127] | 0.0001 µM | 10 µM | – | –
6 | CCCCc1nc2c(N)nc3ccccc3c2n1CCCCNS(=O)(=O)c1cc(Cl)ccc1OC [Example 100] | 0.01 µM | 10 µM | – | –
7 | COCCc1nc2c(N)nc3ccccc3c2n1CCCCNS(=O)(=O)c1cccc(F)c1 [Example 122] | 0.0001 µM | 1 µM | – | –
8 | CCCCc1nc2c(N)nc3ccccc3c2n1CCNS(=O)(=O)CCC [Example 17] | 1.11 µM | 3.33 µM | – | –
9 | CCCCc1nc2c(N)nc3ccccc3c2n1CCCCNS(=O)(=O)c1ccc(OC(F)(F)F)cc1 [Example 85] | 1 µM | > 10 µM | – | –
10 | COCCc1nc2c(N)nc3ccccc3c2n1CCCCNS(=O)(=O)c1cccc(Br)c1 [Example 184] | 0.0001 µM | 1 µM | – | –
11 | Nc1nc2c(c3c1ncn3CCCCNS(=O)(=O)c1ccccc1)CCCC2 [Example 58] | 3.33 µM | > 30 µM | – | –
12 | CCCCc1nc2c(N)nc3c(c2n1CCCCNS(=O)(=O)Cc1ccccc1)CCCC3 [Example 205] | 0.0001 µM | 1 µM | – | –
13 | CCCCc1nc2c(N)nc3ccccc3c2n1CCNS(=O)(=O)c1cc(Br)ccc1OC [Example 24] | 0.12 µM | 30 µM | – | –
14 | Nc1nc2c(c3c1ncn3CCCCNS(=O)(=O)Cc1ccccc1)CCCC2 [Example 67] | 10 µM | > 30 µM | – | –
15 | CCCCc1nc2c(N)nc3ccccc3c2n1CCCCNS(C)(=O)=O [Example 6, N^1-[4-(4-Amino-2-butyl-1H-imidazo[4,5-c]quinolin-1-yl)butyl]methanesulfonamide] | – | – | 0.00017 µM | 1.11 µM
16 | CCCCc1nc2c(N)nc3ccccc3c2n1CCCCNS(=O)(=O)c1ccc(C(F)(F)F)cc1[N+](=O)[O-] [Example 79] | 0.01 µM | 1 µM | – | –
17 | CCCCc1nc2c(N)nc3ccccc3c2n1CCCCNS(=O)(=O)c1cc(Br)ccc1OC [Example 105] | – | – | 1 µM | 10 µM
18 | COCCc1nc2c(N)nc3c(c2n1CCCCNS(=O)(=O)N(C)C)CCCC3 [Example 221] | 0.0001 µM | 1 µM | – | –
19 | CCCCc1nc2c(N)nc3ccccc3c2n1CCNS(=O)(=O)c1cccc2cccnc12 [Example 30] | 1.11 µM | > 30 µM | – | –

Row | Compound | minimal effective concentration (interferon (α); Homo sapiens, PBMC) | minimal effective concentration ([1]; Homo sapiens, PBMC) | minimal effective concentration (interferon (α)) | minimal effective concentration [1]
20 | COCCc1nc2c(N)nc3ccccc3c2n1CCCCNS(=O)(=O)c1cccs1 [Example 112] | 0.0001 µM | > 10 µM | – | –
21 | CCOCc1nc2c(N)nc3ccccc3c2n1CCNS(C)(=O)=O [Example 108] | 0.1 µM | 10 µM | – | –
22 | CCCCc1nc2c(N)nc3ccccc3c2n1CCNS(=O)(=O)c1ccccc1 [Example 20] | 0.12 µM | 3.33 µM | – | –
23 | CCCCc1nc2c(N)nc3ccccc3c2n1CCNS(=O)(=O)/C=C/c1ccccc1 [Example 29] | 0.37 µM | 10 µM | – | –
24 | CCCCc1nc2c(N)nc3ccccc3c2n1CCCCNS(=O)(=O)c1ccc(C(=O)O)cc1 [Example 84] | 1 µM | 10 µM | – | –
25 | Nc1nc2c(c3c1ncn3CCCCNS(=O)(=O)c1cccs1)CCCC2 [Example 57] | 3.33 µM | > 30 µM | – | –
26 | COCCc1nc2c(N)nc3ccccc3c2n1CCCCNS(C)(=O)=O [Example 111] | 0.001 µM | 10 µM | – | –
27 | COCCc1nc2c(N)nc3ccccc3c2n1CCCCNS(=O)(=O)NCc1ccccc1 [Example 231] | 0.0001 µM | 1 µM | – | –
28 | CCOCc1nc2c(N)nc3ccccc3c2n1CCNS(=O)(=O)c1cccs1 [Example 109] | 1 µM | 10 µM | – | –
29 | CCCCc1nc2c(N)nc3ccccc3c2n1CCCCNS(=O)(=O)CCCCl [Example 82] | 0.001 µM | 1 µM | – | –
30 | CCCCc1nc2c(N)nc3c(c2n1CCCCNS(=O)(=O)N(C)C)CCCC3 [Example 220] | 0.0001 µM | 1 µM | – | –
31 | CCCCc1nc2c(N)nc3ccccc3c2n1CCCCNS(=O)(=O)c1ccc(OC)cc1 [Example 37] | 0.01 µM | 1.11 µM | – | –
32 | COCCc1nc2c(N)nc3ccccc3c2n1CCCCNS(=O)(=O)c1ccccc1 [Example 158] | 0.0001 µM | 1 µM | – | –
33 | Cc1ccc(S(=O)(=O)NCCCCn2cnc3c(N)nc4c(c32)CCCC4)cc1 [Example 64] | 3.33 µM | > 30 µM | – | –
34 | CCCCc1nc2c(N)nc3ccccc3c2n1CCCCNS(=O)(=O)c1cccc2ccccc12 [Example 41] | 0.01 µM | > 30 µM | – | –
35 | COCCc1nc2c(N)nc3c(c2n1CCCCNS(=O)(=O)c1cccc2c(N(C)C)cccc12)CCCC3 [Example 213] | 0.0001 µM | 1 µM | – | –
36 | COCCc1nc2c(N)nc3ccccc3c2n1CCCCNS(=O)(=O)c1ccc(Cl)cc1 [Example 128] | 0.0001 µM | 1 µM | – | –
37 | CCCCc1nc2c(N)nc3ccccc3c2n1CCNS(=O)(=O)c1ccc2ccccc2c1 [Example 32] | 1.11 µM | > 30 µM | – | –
38 | CCCCc1nc2c(N)nc3ccccc3c2n1CCCCNS(=O)(=O)c1ccc([N+](=O)[O-])cc1 [Example 88] | 0.01 µM | 1 µM | – | –

Row | Compound | minimal effective concentration (interferon (α); Homo sapiens, PBMC) | minimal effective concentration ([1]; Homo sapiens, PBMC) | minimal effective concentration (interferon (α)) | minimal effective concentration [1]
39 | CCCCc1nc2c(N)nc3ccccc3c2n1CCCCNS(=O)(=O)c1cccc([N+](=O)[O-])c1 [Example 83] | 0.001 µM | 1 µM | – | –
40 | CCOCc1nc2c(N)nc3ccccc3c2n1CCNS(=O)(=O)c1cccc2c(N(C)C)cccc12 [Example 110] | 10 µM | > 10 µM | – | –
41 | CCCCCCCCCCCCCCCCS(=O)(=O)NCCCCn1c(CCCC)nc2c(N)nc3ccccc3c21 [Example 75] | > 10 µM | > 10 µM | – | –
42 | CCCCc1nc2c(N)nc3ccccc3c2n1CCCCNS(=O)(=O)C(F)(F)F [Example 53] | 0.01 µM | 3.33 µM | – | –
43 | CCCCc1nc2c(N)nc3ccccc3c2n1CCNS(=O)(=O)c1ccc(Br)cc1 [Example 21] | 1.11 µM | 30 µM | – | –
44 | CCCCc1nc2c(N)nc3ccccc3c2n1CCCCNS(=O)(=O)c1cc(F)ccc1C [Example 106] | 1 µM | 1 µM | – | –
45 | CCCCc1nc2c(N)nc3ccccc3c2n1CCCCNS(=O)(=O)c1ccccc1OC(F)(F)F [Example 91] | 0.01 µM | 1 µM | – | –
46 | CCCCS(=O)(=O)NCCCCn1c(CCOC)nc2c(N)nc3c(c21)CCCC3 [Example 209] | 0.0001 µM | 0.1 µM | – | –
47 | CCCCc1nc2c(N)nc3ccccc3c2n1CCCCNS(=O)(=O)c1cc(Br)ccc1OC [Example 52] | – | 10 µM | 0.12 µM | –
48 | CCCCc1nc2c(N)nc3ccccc3c2n1CCCCNS(C)(=O)=O [Example 36] | – | – | 0.0015 µM | 3.33 µM
49 | CCCCc1nc2c(N)nc3ccccc3c2n1CCCCNS(=O)(=O)c1cccc(C(F)(F)F)c1 [Example 80] | 1 µM | 10 µM | – | –
50 | CCCCc1nc2c(N)nc3c(c2n1CCCCNS(=O)(=O)c1cccc2c(N(C)C)cccc12)CCCC3 [Example 206] | 1 µM | > 10 µM | – | –
51 | CCCCc1nc2c(N)nc3ccccc3c2n1CCCCNS(=O)(=O)c1ccc(-c2ccccc2)cc1 [Example 96] | 1 µM | > 10 µM | – | –
52 | CCOCc1nc2c(N)nc3ccccc3c2n1CCNS(=O)(=O)N(C)C [Example 217] | 1 µM | > 10 µM | – | –
53 | CCCCc1nc2c(N)nc3ccccc3c2n1CCNS(=O)(=O)c1ccc(OC)cc1 [Example 27] | 1.11 µM | 30 µM | – | –
54 | CC(C)(C)c1ccc(S(=O)(=O)NCCCCn2cnc3c(N)nc4c(c32)CCCC4)cc1 [Example 62] | > 30 µM | > 30 µM | – | –
55 | CC(C)S(=O)(=O)NCCCCn1cnc2c(N)nc3c(c21)CCCC3 [Example 55] | 3.33 µM | > 30 µM | – | –
56 | CCCCc1nc2c(N)nc3ccccc3c2n1CCCCNS(=O)(=O)c1cccs1 [Example 44] | – | – | 0.0015 µM | 1.11 µM
57 | CCOC(=O)C1CCN(S(=O)(=O)NCCCCn2c(CCOC)nc3c(N)nc4ccccc4c32)CC1 [Example 227] | 0.001 µM | > 10 µM | – | –
